Data on 3 compounds can be found in patent US20140044759A1, “DRUG SUBSTANCES, PHARMACEUTICAL COMPOSITIONS AND METHODS FOR PREPARING THE SAME” (priority 2011, published 2014).

Assay type in all cases: physicochemical
Data set [1] can be described thus: BET specific surface area by nitrogen adsorption (TRISTAR 2000). As to conditions: for BET specific surface area, effect of slurry composition: external T=18 °C, FIG. 10. An excerpt: Through these tests, it was established that drug substance Brunnauer-Emmett-Teller specific surface area (“BET specific surface area” or “BET SSA”) in a particular range is desirable to obtain desirable dissolution properties in the final product. BET specific surface area can be measured by physical adsorption methods known to one of skill in the art. All measurements described herein were made on a TRISTAR 2000 instrument (MICROMERITICS, Norcross, Ga.) using the nitrogen adsorption method, as described in Webb, P. A., “Surface Area, Porosity, and Related Physical Characteristics,” in PHARMACEUTICAL DOSAGE FORMS: TABLETS, VOLUME 3: MANUFACTURE AND PROCESS CONTROL 277-302 (eds. L. Augsburger & S. W. Hoag Informa Healthcare USA Inc. 2008). In the nitrogen absorption method, a tube containing a solid sample is preconditioned at a certain temperature for a predetermined amount of time to remove gases/vapors adsorbed on the surface of the solids. For the examples described herein, the equilibration temperature was 30° C., and the time was 16 hours. The tube is then placed into the instrument and evacuated. After evacuation, the tube is submerged into liquid nitrogen, and a known amount of nitrogen (N2) gas is introduced in the tube by means of a control valve. The N2 gas expands and fills the free volume of the tube. The pressure P of the tube will become equal to nRT/V, where n is the number of N2 gas molecules introduced in the sample tube, R is the universal gas constant, T is the absolute temperature and V is the tube free volume. By repeating the evacuation and filling procedure for different amounts of N2 gas, a BET isotherm curve can be obtained, and the BET specific surface area of the solids can be calculated from the slope of the BET curve, as described in Webb (supra).

Data set [2] can be described thus: Bulk and tap density of drug substance powder (morphology study). Here is the method: A solution of the product of Example 1, Procedure A2 (608.5 g) dissolved in MTBE (2450 mL) was prepared. The solution was added into the mixing chamber at a rate of 840 mL/min and combined with n-heptane flowing at a rate of 3400 mL/min to form a slurry. The precipitation temperature was controlled at 20° C. After precipitation, one sample was filtered at 20° C. and a second sample was heated to 50° C. at a rate of 1° C./min. The drug substance particle morphology was examined by Scanning Electron Microscopy (SEM); images of the particles are provided as FIGS. 7A and 7B, respectively.
The difference in morphology between the two […] samples is readily apparent. The sample filtered at 20° C., shown in FIG. 7A, retained the particle morphology obtained during precipitation. The sample heated to 50° C., shown in FIG. 7B, consists of particles that are fused together; some particles look melted. The particles having different morphologies also had differences in drug substance physical attributes.

Data set [3] in a line: Dissolution testing of drug product, USP Dissolution Apparatus 2 (paddle). As to conditions: 45 minutes; drug substance BET SSA 12.06 m^2/g. Here is the method: The resulting drug products were subjected to dissolution testing in a USP Dissolution Apparatus 2 (DISTEK, New Brunswick, N.J.), equipped with a paddle (see United States Pharmacopeia (USP) General Chapter 711 Dissolution). 50 millimoles of phosphate buffer (pH=6.8) containing 0.1% sodium dodecyl sulphate was used. Testing was performed at physiological temperatures (37.0° C.±0.5° C.).

Where [4] appears, read: aging process, sample: After 1% of batch distilled.
[5] abbreviates: aging process, sample: After 2% of batch distilled.
[6] abbreviates: aging process, sample: After 4% of batch distilled.
The mark [7] stands for this setting: aging process, sample: After 6 hours at aging temperature.
Setting [8] is: aging process, sample: After distillation.
Setting [9] is: aging process, sample: After precipitation.
Setting [10] is: aging process, sample: Final dry cake.
[11] abbreviates: Example 8, equilibration temperature 20 °C (filtered at 20 °C).
Setting [12] is: Example 8, equilibration temperature 50 °C (heated to 50 °C at 1 °C/min).

For `CC(C)(C)NC(=O)N[C@H](C(=O)N1C[C@H]2[C@@H]([C@H]1C(=O)NC(CC1CCC1)C(=O)C(N)=O)C2(C)C)C(C)(C)C` (stereo partly shown) [Batch 1], the “BET SSA” value in data set [1] (setting [4]) was 9.18 m^2/g; in data set [1] (setting [5]), 9.13 m^2/g; in data set [1] (setting [6]) it was 9.05 m^2/g; in data set [1] (setting [7]) it was 9.60 m^2/g; in data set [1] (setting [8]), 8.88 m^2/g; in data set [1] (setting [9]), 56.70 m^2/g. Besides, in data set [1] (setting [10]), the “BET SSA” value came out at 9.30 m^2/g.
For `CC(C)(C)NC(=O)N[C@H](C(=O)N1C[C@H]2[C@@H]([C@H]1C(=O)NC(CC1CCC1)C(=O)C(N)=O)C2(C)C)C(C)(C)C` (stereo partly drawn) [boceprevir, (1R,5S)—N-[3-amino-1-(cyclobutylmethyl)-2,3-dioxopropyl]-3-[2(S)-[[[(1,1-dimethylethyl)amino]carbonyl]amino]-3,3-dimethyl-1-oxobutyl]-6,6-dimethyl-3-azabicyclo[3.1.0]hexan-2(S)-carboxamide], the “bulk and tap density, powder of FIG. 7A (20 °C) compared to powder of FIG. 7B (50 °C)” value in data set [2] (Example 8) is “about 2 times”. Moreover, the results for the “Bulk Density” value in data set [2] (setting [11]) and in data set [2] (setting [12]) were 0.3087 g/mL and 0.1265 g/mL, respectively. In addition, the “Tap Density” value in data set [2] (setting [11]) is listed as 0.4062 g/mL; in data set [2] (setting [12]) it was 0.1898 g/mL. In addition, the “BET specific surface area” value in data set [1] (Example 2, laboratory scale tee mixer, slurry filtered immediately after precipitation and dried) was “about 94 m^2/g”; in data set [1] (Example 6, distillation profile of Table 3), 2.93 m^2/g; in data set [1] (Example 6, distillation profile of Table 11 (25-27.0 °C)), 2.01 m^2/g; in data set [1] (Example 7, drug substance used for the high BET SSA study), 12.06 m^2/g. The “BET specific surface area, powder of FIG. 7A (20 °C) compared to powder of FIG. 7B (50 °C)” value in data set [1] (Example 8) was found to be 10 times. Also, the results for the “BET SSA” value in data set [1] (setting [11]) and in data set [1] (setting [12]) were 19.11 m^2/g and 1.82 m^2/g, respectively. Besides, in data set [1] (Example 9, slurries from -15 °C held at external temperatures of 5 °C and 0 °C, FIG. 8), the “final BET specific surface area as a function of equilibration temperature” value was “lower for the higher equilibration temperature”. In addition, the “changes in BET specific surface area on holding at aging temperature” value in data set [1] (Example 10, aging temperature 14 °C, after 3 hours of holding, FIG. 6) is listed as “very small changes”. The “BET specific surface area, effect of slurry composition” value is given as “higher drug substance BET specific surface area” in data set [1] (Example 12, first slurry (low solvent/high anti-solvent)) and “lower drug substance BET specific surface area” in data set [1] (Example 12, second slurry (high solvent/low anti-solvent)). Besides, the “% Dissolved” value in data set [3] is “did not consistently meet or exceed a 75% dissolution criterion”.
With `CC(C)(C)NC(=O)N[C@H](C(=O)N1C[C@H]2[C@@H]([C@H]1C(=O)NC(CC1CCC1)C(=O)C(N)=O)C2(C)C)C(C)(C)C` (stereo partly shown) [Batch 2], the “BET SSA” value in data set [1] (setting [4]) turned out to be 7.14 m^2/g; in data set [1] (setting [5]) it was 6.90 m^2/g; in data set [1] (setting [6]) it was 6.88 m^2/g; in data set [1] (setting [7]) it was 7.36 m^2/g; in data set [1] (setting [8]) it was 6.92 m^2/g; in data set [1] (setting [9]) it was 46.94 m^2/g. Moreover, in data set [1] (setting [10]), the “BET SSA” value stood at 7.61 m^2/g.
